Assay results from US20110105491A1, “THIAZOLIDINE COMPOUNDS AS OREXIN RECEPTOR ANTAGONISTS” (priority 2008, published 2011).
Read-outs that look alike come from different tables or passages of the source.

Key:
human orexin-1 receptor = molecular target: T1, human orexin-1 receptor (Homo sapiens, UniProt O43613); experiment: FLIPR calcium assay of orexin receptor antagonistic activity, CHO cells expressing human orexin-1 receptor; type: cell-based; conditions: 3 nM orexin-A as agonist; not normalized; *2/*3 = geometric mean of n = 2/3 values; read-out: OX1 IC50
T1 construct: expressed in transfected cells; host or cells: Chinese hamster ovary (CHO) cells
T1 sequence (O43613 1-425): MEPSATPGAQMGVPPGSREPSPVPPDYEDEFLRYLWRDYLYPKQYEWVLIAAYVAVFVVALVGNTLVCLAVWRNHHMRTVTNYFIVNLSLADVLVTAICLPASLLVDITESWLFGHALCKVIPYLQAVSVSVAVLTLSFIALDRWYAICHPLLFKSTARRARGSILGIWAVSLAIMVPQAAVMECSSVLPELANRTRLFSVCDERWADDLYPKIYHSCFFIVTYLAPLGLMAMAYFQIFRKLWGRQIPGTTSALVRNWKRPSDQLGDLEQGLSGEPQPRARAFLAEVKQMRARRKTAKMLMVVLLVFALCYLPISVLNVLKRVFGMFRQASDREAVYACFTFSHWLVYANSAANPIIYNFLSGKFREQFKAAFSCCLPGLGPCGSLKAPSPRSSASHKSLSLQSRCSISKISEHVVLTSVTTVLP
Method: (§1) The orexin receptor antagonistic activity of the compounds of formula (I) is determined in accordance with the following experimental method.
(§2) Chinese hamster ovary (CHO) cells expressing the human orexin-1 receptor and the human orexin-2 receptor, respectively, are grown in culture medium (Ham F-12 with L-Glutamine) containing 300 μg/ml G418, […] penicillin, 100 μg/ml streptomycin and 10% heat inactivated fetal calf serum (FCS). The cells are seeded at 20′000 cells/well into 384-well black clear bottom sterile plates (Greiner). The seeded plates are incubated overnight at 37° C. in 5% CO2.
(§3) Human orexin-A as an agonist is prepared as 1 mM stock solution in MeOH:water (1:1), diluted in HBSS containing 0.1% bovine serum albumin (BSA), NaHCO3: 0.375 g/l and 20 mM HEPES for use in the assay at a final concentration of 3 nM.
(§4) Antagonists are prepared as 10 mM stock solution in DMSO, then diluted in 384-well plates using DMSO followed by a transfer of the dilutions into in HBSS containing 0.1% bovine serum albumin (BSA), NaHCO3: 0.375 g/l and 20 mM HEPES. On the day of the assay, 50 μl of staining buffer (HBSS containing 1% FCS, 20 mM HEPES, NaHCO3: 0.375 g/l, 5 mM probenecid (Sigma) and 3 μM of the fluorescent calcium indicator fluo-4 AM (1 mM stock solution in DMSO, containing 10% pluronic) is added to each well. The 384-well cell-plates are incubated for 50 min at 37° C. in 5% CO2 followed by equilibration at rt for 30-120 min before measurement.
(§5) Within the Fluorescent Imaging Plate Reader (FLIPR Tetra, Molecular Devices), antagonists are added to the plate in a volume of 10 μl/well, incubated for 10 min and finally […] of agonist is added. Fluorescence is measured for each well at 1 second intervals, and the height of each fluorescence peak is compared to the height of the fluorescence peak induced by 3 nM orexin-A with vehicle in place of antagonist. For each antagonist, the IC50 value (the concentration of compound needed to inhibit 50% of the agonistic response) is determined and may be normalized using the obtained IC50 value of a on-plate reference compound (normalized values in Table 1 are indicated by an asterisk *). Optimized conditions were achieved by adjustment of pipetting speed and cell splitting regime. The calculated IC50 values of the compounds may fluctuate depending on the daily cellular assay performance. Fluctuations of this kind are known to those skilled in the art.

human orexin-2 receptor = molecular target: T2, human orexin-2 receptor (Homo sapiens, UniProt O43614); experiment: FLIPR calcium assay of orexin receptor antagonistic activity, CHO cells expressing human orexin-2 receptor; type: cell-based; conditions: read-out: OX2 IC50
T2 construct: expressed in transfected cells; host or cells: Chinese hamster ovary (CHO) cells
T2 sequence (O43614 1-444): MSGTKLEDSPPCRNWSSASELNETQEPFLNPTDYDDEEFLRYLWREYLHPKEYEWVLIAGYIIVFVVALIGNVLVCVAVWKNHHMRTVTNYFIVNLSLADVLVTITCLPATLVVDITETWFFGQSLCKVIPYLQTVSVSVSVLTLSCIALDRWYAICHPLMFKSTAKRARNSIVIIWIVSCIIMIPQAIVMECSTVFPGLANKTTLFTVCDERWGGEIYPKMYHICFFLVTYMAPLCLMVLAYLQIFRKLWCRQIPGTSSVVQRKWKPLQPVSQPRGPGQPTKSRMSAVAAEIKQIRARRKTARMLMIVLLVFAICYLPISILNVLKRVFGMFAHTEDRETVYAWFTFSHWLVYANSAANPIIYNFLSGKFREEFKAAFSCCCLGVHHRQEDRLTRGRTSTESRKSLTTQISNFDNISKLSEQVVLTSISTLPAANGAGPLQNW
Method: as §1, §2, §3, §4, §5

[1] = 3 nM orexin-A as agonist, not normalized, *2/*3 = geometric mean of n = 2/3 values

SMILES	IC50 (human orexin-1 receptor)	IC50 (human orexin-2 receptor; [1])	IC50 (human orexin-2 receptor)
Cc1cccc(-c2sc(C)nc2C(=O)N2CCSC2CNC(=O)c2ccn3ccsc23)c1 (racemic) [Example 4, rac-Pyrrolo[2,1-b]thiazole-7-carboxylic acid [3-(2-methyl-5-m-tolyl-thiazole-4-carbonyl)-thiazolidin-2-ylmethyl]-amide]	2 nM	2 nM	
Cc1cccc(-c2sc(C)nc2C(=O)N2CCSC2CNC(=O)c2ccc(C(F)(F)F)c3oc(C)cc23)c1 (racemic) [Example 11, rac-2-Methyl-7-trifluoromethyl-benzofuran-4-carboxylic acid [3-(2-methyl-5-m-tolyl-thiazole-4-carbonyl)-thiazolidin-2-ylmethyl]-amide]	17 nM	63 nM	
Cc1cccc(-c2sc(C)nc2C(=O)N2CCSC2CNC(=O)c2cccc3ocnc23)c1 (racemic) [Example 17, rac-Benzooxazole-4-carboxylic acid [3-(2-methyl-5-m-tolyl-thiazole-4-carbonyl)thiazolidin-2-ylmethyl]-amide]	4 nM	6 nM	
Cc1nc(-c2cccc(Cl)c2)c(C(=O)N2CCSC2CNC(=O)c2cccc3c2CCO3)s1 (racemic) [Example 29, rac-2,3-Dihydro-benzofuran-4-carboxylic acid {3-[4-(3-chloro-phenyl)-2-methyl-thiazole-5-carbonyl]-thiazolidin-2-ylmethyl}-amide]	3 nM	7 nM	
COc1cccc(-c2nc(C)sc2C(=O)N2CCSC2CNC(=O)c2cccc3c2CCO3)c1 (racemic) [Example 32, rac-2,3-Dihydro-benzofuran-4-carboxylic acid {3-[4-(3-methoxy-phenyl)-2-methyl-thiazole-5-carbonyl]-thiazolidin-2-ylmethyl}-amide]	4 nM	5 nM	
Cc1nc(-c2ccc(F)cc2)c(C(=O)N2CCSC2CNC(=O)c2nn(C)c3ccccc23)s1 (racemic) [Example 39, rac-1-Methyl-1H-indazole-3-carboxylic acid {3-[4-(4-fluoro-phenyl)-2-methyl-thiazole-5-carbonyl]-thiazolidin-2-ylmethyl}-amide]	8 nM	86 nM	
Cc1ccc(-c2nc(C)sc2C(=O)N2CCSC2CNC(=O)c2cccc3c2OCCO3)cc1 (racemic) [Example 42, rac-2,3-Dihydro-benzo[1,4]dioxine-5-carboxylic acid [3-(2-methyl-4-p-tolyl-thiazole-5-carbonyl)-thiazolidin-2-ylmethyl]-amide]	10 nM	31 nM	
Cc1nc(-c2cccc(C(F)(F)F)c2)c(C(=O)N2CCSC2CNC(=O)c2nn(C)c3ccccc23)s1 (racemic) [Example 50, rac-1-Methyl-1H-indazole-3-carboxylic acid {3-[2-methyl-4-(3-trifluoromethyl-phenyl)-thiazole-5-carbonyl]-thiazolidin-2-ylmethyl}-amide]	7 nM	43 nM	
Cc1nc(C(=O)N2CCSC2CNC(=O)c2cccc3c2OCCO3)c(-c2ccccc2)s1 (racemic) [Example 57, rac-2,3-Dihydro-benzo[1,4]dioxine-5-carboxylic acid [3-(2-methyl-5-phenyl-thiazole-4-carbonyl)-thiazolidin-2-ylmethyl]-amide]	4 nM	10 nM	
Cc1nc(C(=O)N2CCSC2CNC(=O)c2nn(C)c3ccccc23)c(-c2ccc(C(F)(F)F)cc2)s1 (racemic) [Example 61, rac-1-Methyl-1H-indazole-3-carboxylic acid {3-[2-methyl-5-(4-trifluoromethyl-phenyl)-thiazole-4-carbonyl]-thiazolidin-2-ylmethyl}-amide]	16 nM	28 nM	
COc1cccc(-c2nccnc2C(=O)N2CCSC2CNC(=O)c2cccc3ncsc23)c1 (racemic) [Example 196, rac-Benzothiazole-7-carboxylic acid {3-[3-(3-methoxy-phenyl)-pyrazine-2-carbonyl]-thiazolidin-2-ylmethyl}-amide]			3 nM
